US20260219259A1, “METHOD FOR QUANTIFYING INSULIN SECRETION CAPACITY IN HUMAN CELL” (JUNTENDO EDUCATIONAL FOUNDATION, priority 2023, published 2026)

Test system: Huh7 cells
Assay: Insulin production in Huh7 cells expressing Ngn3, Mafa and Pdx1, insulin quantified using HISCL HI-1000
Format: cell-based, human
Conditions: concentration of from 1 to 30 nM; FIG. 8
Description: The recombinant SW872 cells that express 3 genes Ngn3, Mafa, and Pdx1 used here were expanded by long-term culture, and the resulting cells were subjected to the same experiment as above. […] Accordingly, a liver-derived cell line Huh7 was infected with Sendai virus vectors (TOKIWA-Bio Inc.) that express 3 genes Ngn3, Mafa, and Pdx1, cultured in a differentiation medium for β cells for 24 hours, and then transfected with expression plasmids of human KLF9 gene and human UCN3 gene using Lipofectamine 3000, and the amount of insulin produced was measured 5 days later. The expression plasmids of human KLF9 gene and human UCN3 gene were prepared by PCR and In-Fusion ligation reaction in the same manner as the method described in Example 3(1) using primers shown in SEQ ID NOs: 65 and 66 and SEQ ID NOS: 69 and 70. pEBMulti-Hyg was used as a negative control, and pEBMulti-hIns was used as a positive control. […] Insulin was quantified using HISCL HI-1000 (Sysmex Corp.). […]
Human SW872 cells that produce hIns-HiBiT5 were infected with Sendai virus vectors that express 3 genes Ngn3, Mafa, and Pdx1 in the same manner as in Example 4, and cultured in a differentiation medium for β cells for 24 hours. […] The method for quantifying insulin was performed in the same manner as in Example 4. […]

CCCC(CCC)C(=O)O [valproic acid]
insulin production from the Huh7 cells: promoted insulin production
